“Also recorded” adds a separate entry of the source.
What was measured:
[1] = system: HeLa cells; test: Immunofluorescence localization of Bcl-2 (mitochondria vs cytosol) after STS; type: cell-based, human
Protocol: To further determine the cellular localization of Bcl-2 under apoptotic and non-apoptotic conditions, Immunofluorescence assay was conducted.
Cells in which Bcl-2 is detected at mitochondria (co-localize with MitoTracker), or at the cytosol (showing diffused pattern of staining) were counted.

[2] = system: Bcl-2; test: In vivo ubiquitination assay of Bcl-2 in MEFs; type: cell-based, mouse; conditions: WT MEFs, transfected, MG132 for 6 h
Protocol: (§1) Cells were transiently transfected with different constructs as detailed herein and treated with MG132 (20 μM, Alexis) for 6 hours. The medium was aspirated and the cells were washed with 1×PBS at room temperature. The cells were scraped at room temperature in 100 μl of denaturation buffer (1% SDS, 140 mM NaCl, 50 mM Tris-HCl pH 7.4) containing protease inhibitor cocktail (Complete, Roche) and 10 mM NEM to preserve ubiquitine chains. The solution was transferred to 2 ml eppendorf tube. The cells were homogenized by passing through a 25-gauge needle (20 times), and boiled for 10 min after vigorous vortexing. An amount of 400 μl of renaturation buffer (2% TritonX-100, 140 mM NaCl, 50 mM Tris-HCl pH 7.4) containing protease inhibitor cocktail (Complete, Roche) and 10 mM NEM was added to the lysate. After 15 min of centrifugation (10,000 g, 4°), the supernatant was transferred into a clean eppendorf tube. The protein concentration was determined using BCA Protein Assay Kit (Pierce). Western blot analyses were performed following immunoprecipitation with particular antibody.
The possible in vivo ubiquitination of Bcl-2 occurring upon apoptotic induction was next tested in immortalized WT MEFs transiently transfected with Bcl-2, XIAP and ubiquitin and treated with 20 μM MG132 for 6 h. […]

[3] = system: Bcl-2; test: In vivo ubiquitination assay of Bcl-2 in HeLa cells; type: cell-based, human; conditions: HeLa cells transfected with Bcl-2, XIAP and ubiquitin, 20 μM MG132 6 h
Protocol: as §1
More specifically, HeLa or ARTS KD HeLa cells were transiently transfected with Bcl-2, XIAP and ubiquitin and treated with 20 μM MG132 for 6 h. […] The cells were harvested and subjected to immunoprecipitation (IP) using anti-Bcl-2 antibodies, followed by immune-blotting (IB) with anti-Bcl-2 antibodies.

[4] = system: BT-549 and HeLa cells; test: Cell fractionation: release of Bcl-2 and ARTS to the cytosol after STS; type: cell-based, human; conditions: 0.6 μM STS
Protocol: Cells were re-suspended in homogenization buffer [20 mM HEPES-KOH, pH 7.5, 10 mM KCl, 1.5 mM MgCl2, 1 mM sodium EDTA, 1 mM sodium EGTA and 1 mM DTT in the presence of 250 mM sucrose and protease inhibitors (Mini-Complete™, Roche)]. Cell homogenization was performed using a 26 G needle (Sterican® 0.45′25 mm, 26 G′1″, Gr.18, B. Braun #46507683) and 1 mL syringe (1 mL HSW NORMJECT®, Henke-Sass, Wolf GmbH #4010.200V0) using 20 strokes. Homogenates were centrifuged at 500×g for 5 min at 4° C., and the supernatant was centrifuged at 10000×g for 20 min to obtain mitochondria. The supernatant was considered as a cytosolic fraction.
Briefly, cells were harvested and centrifuged at 300×g for 10 min, washed in TBS 2.5 mM pH 7.5, and re-pelletted. Cells were permeabilized for 5 min on ice with cytosolic extraction buffer (250 mM sucrose, 70 mM KCl, 137 mM NaCl, 4.3 mM Na2HPO4, 1.4 mM KH2PO4 pH 7.2, 1× complete protease inhibitor cocktail, Roche) containing freshly prepared digitonin (200 μg/ml, D-5628, Sigma). Cytosolic fraction was isolated by collecting the supernatant after centrifugation at 1000×g for 5 min at 4° C. Cytosolic fraction was separated on a 12% acrylamide gel and transferred to nitrocellulose membranes.
It has been recently shown by some of the inventors that similarly to Bcl-2, ARTS resides at the MOM of living cells (Edison et al., 2012b). […]

[5] = system: Bcl-2

CN[C@@H]1C[C@H]2O[C@@](C)([C@@H]1OC)n1c3ccccc3c3c4c(c5c6ccccc6n2c5c31)C(=O)NC4 [STS, staurosporine]
cells exhibiting Bcl-2 in the cytosol ([1]; HeLa cells transfected with Bcl-2, 180 minutes of STS treatment): 94% | cells exhibiting Bcl-2 in their cytosol ([1]; HeLa cells transfected with Bcl-2, sixty minutes following STS treatment): 63% | polyubiquitinated forms of Bcl-2 following apoptotic induction [2]: accumulation of polyubiquitinated forms of Bcl-2; also recorded: accumulation of poly-ubiquitinated forms of Bcl-2; also recorded: poly-ubiquitinated forms of Bcl-2 detected | time of appearance of Bcl-2 polyubiquitinated forms [2]: ≤ 30 min | time at which poly-ubiquitinated forms of Bcl-2 are seen ([3]; 1.5 μM STS): ≤ 30 min | poly-ubiquitinated forms of Bcl-2 after induction of apoptosis ([3]; 1.5 μM STS 0.5 h): significant accumulation of poly-ubiquitinated forms of Bcl-2 | time at which Bcl-2 and ARTS are found in the cytosol after apoptosis induction [4]: 2 to 15 min | Bcl-2 levels ([5]; HeLa cells, 60 and 180 minutes treatments with STS): decrease in Bcl-2 levels | Bcl-2 levels upon induction of apoptosis ([5]; different cell lines and mouse embryonic fibroblasts (MEFs), Western blot): down regulated

Reference: patent US11230579B2, “Method of treating BCL-2 over-expressing disorders using arts containing a BH3-like domain” (CARMEL-HAIFA UNIVERSITY ECONOMIC CORPORATION LTD., priority 2012, dated 2022)
